# Laboratory results as given in patent publication US9067922B2, “Chemical compounds” (Pfizer Limited, priority 2013, dated 2015).
# Molecular target: URAT-1 transporter (Homo sapiens (Human), UniProt Q96S37)
# Assay: URAT-1 inhibitor activity: [14C]-uric acid uptake in CHO-URAT1(L)GFP#8 (CHO#8) cells, scintillation proximity
# Format: cell-based
# Settings: inhibition of [14C]-uric acid (30 nM) uptake into CHO#8 cells; compound 0 to 10 μM; 4 parameter logistic fit
# Description: The nucleotide sequence for the long isoform of URAT1 (NM_144585) was C-terminally fused to that of enhanced green fluorescent protein (eGFP) (hereinafter referred to as URAT1(L)GFP). The combined sequence was codon-optimised and custom synthesized. The synthesized sequence was generated in pDONR221 Gateway entry vector (Invitrogen Life Technologies) prior to cloning in pLenti6.3/V5 Gateway destination vector (Invitrogen Life Technologies).
# Lentiviral particles were generated according to ViraPower HiPerform expression system procedure (Invitrogen Life Technologies) and used to transduce CHO cells. […] The clonal pools were sorted using fluorescence-activated cell sorting (FACS) on the basis of GFP expression with the gating set at the top 50% of expression into single cells which were subsequently expanded to generate clonal lines. […] This cell line was used for all screening activities and is referred to as CHO-URAT1(L)GFP#8 or CHO#8.
# The potency of the compounds of formula (I) as inhibitors of the URAT-1 transporter was determined as follows.
# CHO#8 cells were cultured in cell line maintenance flasks in medium consisting of Dulbecco's modified Eagle medium (DMEM) with high glucose and sodium pyruvate (4.5 g of glucose per liter, Invitrogen Life Technologies), supplemented with heat-inactivated foetal bovine serum (FBC, 10% v/v), 1×NEAA (non-essential amino acids) and blasticidin (10 μg/ml). Cultures were grown in 175 cm^2 tissue culture flasks in a humidified incubator at approximately 37° C. in approximately 95% air/5% CO2. Near confluent CHO#8 cell cultures were harvested by trypsinisation, re-suspended in culture medium and the process was repeated once or twice weekly to provide sufficient cells for use.
# Assay ready flasks were generated by the same method, except the cells were not cultured in blasticidin.
# Assay ready frozen cells were generated by freezing 40,000,000 cells in 1 ml of FBS (without blasticidin) containing 10% DMSO per vial. One vial was sufficient for 5 assay plates. Each vial was thawed rapidly to 37° C., washed and re-suspended in pre-warmed culture medium for seeding onto assay plates.
# CHO#8 cells were seeded onto Cytostar™ 96-well plates at a density of […]. The cells were cultured for 1 day at approximately 37° C. in a humidified incubator containing approximately 5% CO2 in air. After approximately 24 hours culture, cells were used for uptake experiments.
# On the day of assay, culture medium was removed from the wells and the cells were washed once with 50 μL of chloride-containing buffer (136.7 mM NaCl, 5.36 mM KCl, 0.952 mM CaCl2, 0.441 mM KH2PO4, 0.812 mM MgSO4, 5.6 mM D-glucose, 0.383 mM Na2HPO4.2H2O, 10 mM HEPES, pH 7.4 with NaOH). The cells were pre-incubated with another 50 μL of chloride-containing buffer for one hour at approximately 37° C. in a humidified incubator containing approximately 5% CO2 in air.
# Assay compound plates were prepared by diluting the compounds of formula (I) with chloride-free buffer (125 mM Na-gluconate, 4.8 mM K-gluconate, 1.3 mM Ca-gluconate, 1.2 mM KH2PO4, 1.2 mM MgSO4, 5.6 mM D-glucose, 25 mM HEPES, pH 7.4 with NaOH) in 100% DMSO to a final concentration of 1% DMSO. [^14C]-Uric Uric acid working stock was made by addition of radiolabeled compound to a final concentration of 120 nM in chloride-free buffer. In all wells, the final assay concentration of solvent (DMSO) was 0.25%; the final assay concentration of [^14C]-uric acid was 30 nM in chloride-free buffer and the final compound of formula (I) concentrations ranged from 0 to 10 μM.
# After pre-incubation, cells were washed with 50 μL of chloride-free buffer and another 50 μL of chloride-free buffer was added.
# Chain of URAT-1 transporter (Q96S37 other isoform, or with tags, fused parts or gaps): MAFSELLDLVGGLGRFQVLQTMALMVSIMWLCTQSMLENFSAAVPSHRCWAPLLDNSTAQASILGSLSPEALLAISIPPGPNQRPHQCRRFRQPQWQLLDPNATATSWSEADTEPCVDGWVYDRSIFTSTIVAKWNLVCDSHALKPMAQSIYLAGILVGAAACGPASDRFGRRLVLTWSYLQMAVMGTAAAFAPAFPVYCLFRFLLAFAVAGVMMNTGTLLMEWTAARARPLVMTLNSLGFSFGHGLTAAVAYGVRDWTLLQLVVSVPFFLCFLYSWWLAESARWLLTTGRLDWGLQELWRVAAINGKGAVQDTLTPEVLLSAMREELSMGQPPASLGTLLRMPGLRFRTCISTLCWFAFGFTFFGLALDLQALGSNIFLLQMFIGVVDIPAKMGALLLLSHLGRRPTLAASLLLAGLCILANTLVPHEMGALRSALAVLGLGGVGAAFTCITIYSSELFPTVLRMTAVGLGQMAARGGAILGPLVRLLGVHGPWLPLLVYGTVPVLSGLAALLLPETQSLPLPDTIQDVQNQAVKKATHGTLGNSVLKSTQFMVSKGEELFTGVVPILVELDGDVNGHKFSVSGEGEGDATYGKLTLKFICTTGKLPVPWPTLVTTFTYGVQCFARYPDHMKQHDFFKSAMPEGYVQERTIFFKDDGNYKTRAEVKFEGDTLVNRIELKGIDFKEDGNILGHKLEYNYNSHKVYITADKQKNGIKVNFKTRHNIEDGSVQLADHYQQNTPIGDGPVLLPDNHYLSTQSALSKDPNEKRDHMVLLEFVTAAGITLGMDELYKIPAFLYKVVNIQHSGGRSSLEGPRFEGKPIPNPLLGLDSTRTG
row,SMILES,IC50 [nM]
1,"N#Cc1cc(S(=O)(=O)Nc2ccc(F)cn2)ccc1Oc1ccc(F)c(C(F)(F)F)c1 [Example 48, 3-cyano-N-(5-fluoropyridin-2-yl)-4-[4-fluoro-3-(trifluoromethyl)phenoxy]benzenesulfonamide]",683
2,"N#Cc1cc(S(=O)(=O)Nc2ccc(F)cn2)ccc1Oc1cc(F)cc(Cl)c1 [Example 28, 4-(3-chloro-5-fluorophenoxy)-3-cyano-N-(5-fluoropyridin-2-yl)benzenesulfonamide]",92
3,"COc1ccc(Oc2ccc(S(=O)(=O)Nc3ccc(F)cn3)cc2C#N)c(C)c1 [Example 201, 3-cyano-N-(5-fluoropyridin-2-yl)-4-(4-methoxy-2-methylphenoxy)benzenesulfonamide]",74
4,"N#Cc1cc(S(=O)(=O)Nc2ccc(F)cn2)ccc1Oc1ccc(F)c(F)c1F [Example 157, 3-cyano-N-(5-fluoropyridin-2-yl)-4-(2,3,4-trifluorophenoxy)benzenesulfonamide]",51
5,"N#Cc1cc(S(=O)(=O)Nc2ccc(F)cn2)ccc1Oc1ccc(Br)cc1 [Example 163, 4-(4-bromophenoxy)-3-cyano-N-(5-fluoropyridin-2-yl)benzenesulfonamide]",> 10000
6,"N#Cc1cc(S(=O)(=O)Nc2ccc(F)cn2)ccc1Oc1ccccc1Cl [Example 9, 4-(2-chlorophenoxy)-3-cyano-N-(5-fluoropyridin-2-yl)benzenesulfonamide]",208
7,"COc1cc(C)cc(Oc2ccc(S(=O)(=O)Nc3ccc(F)cn3)cc2C#N)c1 [Example 182, 3-cyano-N-(5-fluoropyridin-2-yl)-4-(3-methoxy-5-methylphenoxy)benzenesulfonamide]",175
8,"N#Cc1cccc(Oc2ccc(S(=O)(=O)Nc3ccc(F)cn3)cc2C#N)c1 [Example 14, 3-cyano-4-(3-cyanophenoxy)-N-(5-fluoropyridin-2-yl)benzenesulfonamide]",206
9,"COc1ccncc1Oc1ccc(S(=O)(=O)Nc2ccc(F)cn2)cc1C#N [Example 190, 3-cyano-N-(5-fluoropyridin-2-yl)-4-[(4-methoxypyridin-3-yl)oxy]benzenesulfonamide]",> 10000
10,"N#Cc1ccc(Oc2ccc(S(=O)(=O)Nc3cccnn3)cc2C#N)cc1Cl [Example 98, 4-(3-chloro-4-cyanophenoxy)-3-cyano-N-(pyridazin-3-yl)benzenesulfonamide]",3870
11,"N#Cc1cc(S(=O)(=O)Nc2ccc(F)cn2)ccc1Oc1ccc(C#N)c(C(F)(F)F)c1 [Example 6, 3-cyano-4-[4-cyano-3-(trifluoromethyl)phenoxy]-N-(5-fluoropyridin-2-yl)benzenesulfonamide]",267
12,"Cc1ccc(Cl)c(C)c1Oc1ccc(S(=O)(=O)Nc2ccc(F)cn2)cc1C#N [Example 169, 4-(3-chloro-2,6-dimethylphenoxy)-3-cyano-N-(5-fluoropyridin-2-yl)benzenesulfonamide]",134
13,"N#Cc1c(Cl)cccc1Oc1ccc(S(=O)(=O)Nc2ncccn2)cc1 [Example 222, 4-(3-chloro-2-cyanophenoxy)-N-(pyrimidin-2-yl)benzenesulfonamide]",> 10000
14,"COc1ccc(Oc2ccc(S(=O)(=O)Nc3ccc(F)cn3)cc2C#N)cc1F [Example 132, 3-cyano-4-(3-fluoro-4-methoxyphenoxy)-N-(5-fluoropyridin-2-yl)benzenesulfonamide]",38
15,"N#Cc1cc(Oc2ccc(S(=O)(=O)Nc3ccc(F)cn3)cc2C#N)ccc1F [Example 19, 3-cyano-4-(3-cyano-4-fluorophenoxy)-N-(5-fluoropyridin-2-yl)benzenesulfonamide]",57
16,"N#Cc1cc(S(=O)(=O)Nc2ccccn2)ccc1Oc1ccc(Cl)cc1I [Example 80, 4-(4-chloro-2-iodophenoxy)-3-cyano-N-(pyridin-2-yl)benzenesulfonamide]",728
17,"N#Cc1cc(S(=O)(=O)Nc2ccc(F)cn2)ccc1Oc1cccc(C(F)(F)F)c1F [Example 29, 3-cyano-N-(5-fluoropyridin-2-yl)-4-[2-fluoro-3-(trifluoromethyl)phenoxy]benzenesulfonamide]",> 10000

row,SMILES,IC50 [nM]
1,"N#Cc1cc(S(=O)(=O)Nc2ccc(F)cn2)ccc1Oc1ccccn1 [Example 187, 3-cyano-N-(5-fluoropyridin-2-yl)-4-(pyridin-2-yloxy)benzenesulfonamide]",> 10000
2,"N#Cc1cc(S(=O)(=O)Nc2ccc(F)cn2)ccc1Oc1ccccc1Br [Example 189, 4-(2-bromophenoxy)-3-cyano-N-(5-fluoropyridin-2-yl)benzenesulfonamide]",103
3,"N#Cc1cc(S(=O)(=O)Nc2ccc(F)cn2)ccc1Oc1cccc(Cl)c1Cl [Example 3, 3-cyano-4-(2,3-dichlorophenoxy)-N-(5-fluoropyridin-2-yl)benzenesulfonamide]",141
4,"N#Cc1ccc(Oc2ccc(S(=O)(=O)Nc3ccc(F)cn3)cc2C#N)cc1Cl [Example 1, 4-(3-chloro-4-cyanophenoxy)-3-cyano-N-(5-fluoropyridin-2-yl)benzenesulfonamide]",13
5,"N#Cc1cc(S(=O)(=O)Nc2ccc(F)cn2)ccc1Oc1cc(F)cc(C(F)(F)F)c1 [Example 40, 3-cyano-N-(5-fluoropyridin-2-yl)-4-[3-fluoro-5-(trifluoromethyl)phenoxy]benzenesulfonamide]",988
6,"N#Cc1ccc(Oc2ccc(S(=O)(=O)Nc3cnccn3)cc2C#N)cc1Cl [Example 93, 4-(3-chloro-4-cyanophenoxy)-3-cyano-N-(pyrazin-2-yl)benzenesulfonamide]",2980
7,"Cc1ccc(Cl)cc1Oc1ccc(S(=O)(=O)Nc2ccc(F)cn2)cc1C#N [Example 39, 4-(5-chloro-2-methylphenoxy)-3-cyano-N-(5-fluoropyridin-2-yl)benzenesulfonamide]",80
8,"CCc1cc(F)ccc1Oc1ccc(S(=O)(=O)Nc2ccc(F)cn2)cc1C#N [Example 56, 3-cyano-4-(2-ethyl-4-fluorophenoxy)-N-(5-fluoropyridin-2-yl)benzenesulfonamide]",182
9,"COc1cccnc1NS(=O)(=O)c1ccc(Oc2ccc(C#N)c(Cl)c2)c(C#N)c1 [Example 102, 4-(3-chloro-4-cyanophenoxy)-3-cyano-N-(3-methoxypyridin-2-yl)benzenesulfonamide]",3130
10,"O=S(=O)(Nc1ccc(F)cn1)c1ccc(Oc2cnc(CO)c(Cl)c2)cc1F [compound 239, 4-{[5-chloro-6-(hydroxymethyl)pyridin-3-yl]oxy}-2-fluoro-N-(5-fluoropyridin-2-yl)benzenesulfonamide]",2
11,"Cc1cc(Oc2ccc(S(=O)(=O)Nc3ccc(F)cn3)cc2C#N)cc(Cl)c1C [Example 171, 4-(3-chloro-4,5-dimethylphenoxy)-3-cyano-N-(5-fluoropyridin-2-yl)benzenesulfonamide]",215
12,"COc1cccc(Oc2ccc(S(=O)(=O)Nc3ccc(F)cn3)cc2C#N)c1C [Example 181, 3-cyano-N-(5-fluoropyridin-2-yl)-4-(3-methoxy-2-methylphenoxy)benzenesulfonamide]",> 10000
13,"COc1cc(Oc2ccc(S(=O)(=O)Nc3ccc(F)cn3)cc2C#N)ccc1Cl [Example 71, 4-(4-chloro-3-methoxyphenoxy)-3-cyano-N-(5-fluoropyridin-2-yl)benzenesulfonamide]",27
14,Cc1ncc(Oc2ccc(S(=O)(=O)Nc3ccc(F)cn3)cc2C#N)cc1Cl [compound 238],88
15,N#Cc1ccc(NS(=O)(=O)c2ccc(Oc3ccc(F)c(Cl)c3)c(C#N)c2)nc1 [compound 230],62
16,"Cc1cc(F)ccc1Oc1ccc(S(=O)(=O)Nc2ccc(F)cn2)cc1C#N [Example 145, 3-cyano-4-(4-fluoro-2-methylphenoxy)-N-(5-fluoropyridin-2-yl)benzenesulfonamide]",96
